The text below walks through data of ChEMBL document CHEMBL1156578, “Countercurrent separation of natural products” (J Nat Prod, 2008).

Data set [1] can be described thus: Octanol-water partition coefficient, log KOW in heptane-ethyl alcohol-water (4:1:4). Format: physicochemical.
A short description of data set [2]: Partition coefficient, log K in n-hexane-ethyl acetate-ethyl alcohol-water (3:7:1:9). Format: physicochemical.
A short description of data set [3]: Partition coefficient, log K in n-hexane-ethyl acetate-ethyl alcohol-water (5:5:3:7). Format: physicochemical.
Data set [4] in a line: Partition coefficient, log K in n-butyl alcohol-ethyl acetate-water by shake flask method (1:4:5). Type of data set: physicochemical.
Data set [5] is described as follows: Partition coefficient, K in n-butyl alcohol-ethyl acetate-water by shake flask method (2:3:5).
A short description of data set [6]: Partition coefficient, log K in n-hexane-ethyl acetate-ethyl alcohol-water (1:9:1:9). Type of data set: physicochemical.
The nature of data set [7]: Partition coefficient, log K in n-hexane-ethyl acetate-ethyl alcohol-water (3:7:3:7). Type of data set: physicochemical.

For `CCNC(=O)c1ccccc1`, the “log K” value in data set [1] is given as 1.51.

Regarding `COc1ccc(/C=C/C(=O)O)cc1OC` [O,O'-DIMETHYLCAFFEIC ACID], in data set [1], the “log K” value is listed as 1.56.

Regarding `COc1ccc([C@@H]2OC[C@H]3[C@@H]2CO[C@@H]3c2ccc(O[C@@H]3O[C@H](CO)[C@@H](O)[C@H](O)[C@H]3O)c(OC)c2)cc1OC` [PHILLYRIN], the “log K” value in data set [2] was 0.312; in data set [3] it was 0.099; in data set [4] it was 3.87; in data set [6], 0.799; in data set [7], 0.246. In data set [5], the K is 6.25.
